Experimental data published in ChEMBL document CHEMBL3774326, “New derivative of 2-(2,4-dihydroxyphenyl)thieno-1,3-thiazin-4-one (BChTT) elicits antiproliferative effect via p38-mediated cell cycle arrest in cancer cells” (Bioorg Med Chem, 2016).
The source made the active and inactive calls. The rule behind the calls is not given here.

Tests used:
HT-29 [1] = experiment: Induction of cell cycle arrest in human HT-29 cells assessed as decrease in cell level at S phase after 24 to 48 hrs by propidium iodide staining-based flow cytometric analysis; assay type: functional
A549 [2] = experiment: Induction of cell cycle arrest in human A549 cells assessed as decrease in cell level at G2M phase after 24 to 48 hrs by propidium iodide staining-based flow cytometric analysis; assay type: functional
C6 [3] = experiment: Effect on c-myc expression in rat C6 cells at 10 to 50 uM after 0.5 to 24 hrs by Western blot analysis; assay type: functional, cell-based
HT-29 [4] = experiment: Induction of cell cycle arrest in human HT-29 cells assessed as accumulation at G0/G1 phase at 50 uM after 24 to 48 hrs by propidium iodide staining-based flow cytometric analysis; assay type: functional
HT-29 [5] = experiment: Inhibition of DNA synthesis in human HT-29 cells assessed as BrdU incorporation after 48 hrs by ELISA; assay type: functional, cell-based
A549 [6] = experiment: Induction of cell cycle arrest in human A549 cells assessed as decrease in cell level at S phase after 24 to 48 hrs by propidium iodide staining-based flow cytometric analysis; assay type: functional
HT-29 [7] = experiment: Effect on c-myc expression in human HT-29 cells at 10 to 50 uM after 0.5 to 24 hrs by Western blot analysis; assay type: functional, cell-based
[8] = target: T1, MAP kinase p38 (Homo sapiens) (UniProt O15264+Q15759+Q16539+P53778); experiment: Increase in phosphorylated p38 level in human A549 cells at 10 to 50 uM after 24 hrs by Western blot analysis; assay type: cell-based
[9] = target: T1, MAP kinase p38 (Homo sapiens); experiment: Increase in phosphorylated p38 level in human HT-29 cells after 0.5 to 24 hrs by Western blot analysis; assay type: cell-based
[10] = target: Mitogen-activated protein kinase 1 and 3 (ERK2 and ERK1) (Rattus norvegicus) (UniProt P63086+P21708); experiment: Effect on ERK1/2 phosphorylation in rat C6 cells at 10 to 50 uM after 0.5 to 24 hrs by Western blot analysis; assay type: cell-based
A549 [11] = experiment: Inhibition of DNA synthesis in human A549 cells assessed as BrdU incorporation after 48 hrs by ELISA; assay type: functional, cell-based
C6 [12] = experiment: Antiproliferative activity against rat C6 cells at 25 to 50 uM after 48 hrs by MTT assay in presence of p38 siRNA; assay type: functional, cell-based
[13] = Cytotoxicity against HSF assessed as cell viability at 10 to 100 uM after 24 hrs by LDH assay; settings: human
C6 [14] = experiment: Induction of cell cycle arrest in rat C6 cells assessed as decrease in cell level at S phase after 24 to 48 hrs by propidium iodide staining-based flow cytometric analysis; assay type: functional
C6 [15] = experiment: Increase in phosphorylated p38 level in rat C6 cells at 10 to 50 uM after 24 hrs by Western blot analysis; assay type: cell-based
[16] = target: T2, Mitogen-activated protein kinase; ERK1/ERK2 (Homo sapiens) (UniProt P27361+P28482); experiment: Effect on ERK1/2 phosphorylation in human A549 cells at 10 to 50 uM after 0.5 to 24 hrs by Western blot analysis; assay type: cell-based
HT-29 [17] = experiment: Induction of cell cycle arrest in human HT-29 cells assessed as decrease in cell level at G2M phase after 24 to 48 hrs by propidium iodide staining-based flow cytometric analysis; assay type: functional
A549 [18] = experiment: Decrease in cyclin D1 expression in human A549 cells at 50 uM after 3 to 24 hrs by Western blot analysis; assay type: functional, cell-based
C6 [19] = experiment: Effect on CREB expression in rat C6 cells at 10 to 50 uM after 0.5 to 24 hrs by Western blot analysis; assay type: functional, cell-based
[20] = target: T2, Mitogen-activated protein kinase; ERK1/ERK2 (Homo sapiens); experiment: Effect on ERK1/2 phosphorylation in human HT-29 cells at 10 to 50 uM after 0.5 to 24 hrs by Western blot analysis; assay type: cell-based
C6 [21] = experiment: Antiproliferative activity against rat C6 cells after 96 hrs by MTT assay; assay type: functional, cell-based
C6 [22] = experiment: Inhibition of DNA synthesis in rat C6 cells assessed as BrdU incorporation after 48 hrs by ELISA; assay type: functional, cell-based
HT-29 [23] = experiment: Antiproliferative activity against human HT-29 cells after 96 hrs by MTT assay; assay type: functional, cell-based
[24] = target: T1, MAP kinase p38 (Homo sapiens); experiment: Increase in phosphorylated p38 level in human A549 cells after 0.5 hrs by Western blot analysis; assay type: cell-based
A549 [25] = experiment: Antiproliferative activity against human A549 cells after 96 hrs by MTT assay; assay type: functional, cell-based
C6 [26] = experiment: Decrease in cyclin D1 expression in rat C6 cells at 50 uM after 0.5 to 24 hrs by Western blot analysis; assay type: functional, cell-based
C6 [27] = experiment: Induction of cell cycle arrest in rat C6 cells assessed as accumulation at G0/G1 phase after 24 to 48 hrs by propidium iodide staining-based flow cytometric analysis; assay type: functional
[28] = Cytotoxicity against rat FaO cells assessed as cell viability at 100 uM after 24 hrs by LDH assay; assay type: cell-based
[29] = Cytotoxicity against rat OLN93 cells assessed as cell viability at 10 to 100 uM after 24 hrs by LDH assay; assay type: cell-based
A549 [30] = experiment: Effect on CREB expression in human A549 cells at 10 to 50 uM after 0.5 to 24 hrs by Western blot analysis; assay type: functional, cell-based
[31] = Cytotoxicity against rat FaO cells assessed as cell viability at 10 to 100 uM after 24 hrs by LDH assay; assay type: cell-based
C6 [32] = experiment: Induction of cell cycle arrest in rat C6 cells assessed as decrease in cell level at G2M phase after 24 to 48 hrs by propidium iodide staining-based flow cytometric analysis; assay type: functional
A549 [33] = experiment: Induction of cell cycle arrest in human A549 cells assessed as accumulation at G0/G1 phase after 24 to 48 hrs by propidium iodide staining-based flow cytometric analysis; assay type: functional
HT-29 [34] = experiment: Effect on CREB expression in human HT-29 cells at 10 to 50 uM after 0.5 to 24 hrs by Western blot analysis; assay type: functional, cell-based
C6 [35] = experiment: Increase in phosphorylated p38 level in rat C6 cells after 0.5 to 3 hrs by Western blot analysis; assay type: cell-based
HT-29 [36] = experiment: Decrease in cyclin D1 expression in human HT-29 cells at 50 uM after 3 to 24 hrs by Western blot analysis; assay type: functional, cell-based
A549 [37] = experiment: Effect on c-myc expression in human A549 cells at 10 to 50 uM after 0.5 to 24 hrs by Western blot analysis; assay type: functional, cell-based

T2 sequence (P27361 whole entry, looked up): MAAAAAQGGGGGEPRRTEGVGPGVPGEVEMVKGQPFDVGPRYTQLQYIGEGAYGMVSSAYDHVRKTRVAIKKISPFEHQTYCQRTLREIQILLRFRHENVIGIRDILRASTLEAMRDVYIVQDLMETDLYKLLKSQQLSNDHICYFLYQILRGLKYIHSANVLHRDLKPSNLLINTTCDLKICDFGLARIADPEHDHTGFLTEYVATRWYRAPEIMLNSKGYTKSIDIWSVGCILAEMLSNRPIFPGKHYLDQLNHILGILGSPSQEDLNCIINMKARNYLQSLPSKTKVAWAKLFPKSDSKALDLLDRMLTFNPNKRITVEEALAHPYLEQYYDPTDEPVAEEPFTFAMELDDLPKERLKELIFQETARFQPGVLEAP
T2 sequence (P28482 whole entry, looked up): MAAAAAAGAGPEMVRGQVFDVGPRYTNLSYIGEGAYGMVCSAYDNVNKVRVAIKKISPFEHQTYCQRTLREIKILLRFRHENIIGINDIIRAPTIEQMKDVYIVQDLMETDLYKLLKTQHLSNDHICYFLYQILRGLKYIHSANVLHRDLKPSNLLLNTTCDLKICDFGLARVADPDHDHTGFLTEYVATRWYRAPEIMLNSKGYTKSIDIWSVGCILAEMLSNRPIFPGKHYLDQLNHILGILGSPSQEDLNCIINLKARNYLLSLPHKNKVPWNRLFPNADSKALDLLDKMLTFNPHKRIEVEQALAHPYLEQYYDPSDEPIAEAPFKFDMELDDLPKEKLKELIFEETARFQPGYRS
Sequence of Mitogen-activated protein kinase 1 and 3 (ERK2 and ERK1) (Rattus norvegicus) (P21708 whole entry, looked up): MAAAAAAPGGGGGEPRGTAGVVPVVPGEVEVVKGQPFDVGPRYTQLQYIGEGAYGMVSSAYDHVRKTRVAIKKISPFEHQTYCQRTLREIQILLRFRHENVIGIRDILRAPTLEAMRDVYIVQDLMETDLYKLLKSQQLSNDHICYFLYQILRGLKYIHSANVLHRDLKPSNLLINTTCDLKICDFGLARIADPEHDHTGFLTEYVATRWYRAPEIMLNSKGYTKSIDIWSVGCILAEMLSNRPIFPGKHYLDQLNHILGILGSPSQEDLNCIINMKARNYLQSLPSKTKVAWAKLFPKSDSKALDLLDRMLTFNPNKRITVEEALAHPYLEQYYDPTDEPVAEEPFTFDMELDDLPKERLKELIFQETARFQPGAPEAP
Sequence of Mitogen-activated protein kinase 1 and 3 (ERK2 and ERK1) (Rattus norvegicus) (P63086 whole entry, looked up): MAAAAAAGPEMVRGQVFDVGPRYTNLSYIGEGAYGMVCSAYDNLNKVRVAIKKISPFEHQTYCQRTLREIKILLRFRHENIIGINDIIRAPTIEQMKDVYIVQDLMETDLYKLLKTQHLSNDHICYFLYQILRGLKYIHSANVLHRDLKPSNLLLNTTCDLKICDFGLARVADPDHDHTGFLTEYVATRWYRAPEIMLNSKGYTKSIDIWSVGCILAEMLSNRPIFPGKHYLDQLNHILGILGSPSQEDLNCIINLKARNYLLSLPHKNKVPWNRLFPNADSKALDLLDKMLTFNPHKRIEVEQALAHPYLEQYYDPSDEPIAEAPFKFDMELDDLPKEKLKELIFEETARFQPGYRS

Activity [8]: inactive
Activity [9]: Dose-dependent effect
Activity [10]: inactive
Activity [16]: inactive
Activity [20]: inactive
IC50 (HT-29 [23]; HT-29, 96 h): 38.6 µM
Activity [24]: Dose-dependent effect
IC50 (A549 [25]; A549, 96 h): 32.9 µM
Compound: CC(C)(C)c1cc2nc(-c3cc(Cl)c(O)cc3O)sc(=O)c2s1
Activity (HT-29 [1]): Dose-dependent effect
Activity (A549 [2]): Dose-dependent effect
Activity (C6 [3]): inactive
Activity (HT-29 [4]): Dose-dependent effect
inhibition (HT-29 [5]): Dose-dependent effect
Activity (A549 [6]): Dose-dependent effect
Activity (HT-29 [7]): inactive
inhibition (A549 [11]): Dose-dependent effect
Activity (C6 [12]): inactive
Activity [13]: Non-toxic
Activity (C6 [14]): Dose-dependent effect
Activity (C6 [15]): inactive
Activity (HT-29 [17]): Dose-dependent effect
Activity (A549 [18]): Active
Activity (C6 [19]): inactive
Activity (C6 [21]): Dose-dependent effect
IC50 (C6 [21]; C6, 96 h): 87.4 µM
inhibition (C6 [22]): Dose-dependent effect
Activity (HT-29 [23]): Dose-dependent effect
Activity (A549 [25]): Dose-dependent effect
Activity (C6 [26]): Active
Activity (C6 [27]): Dose-dependent effect
Activity [28]: Toxic
Activity [29]: Non-toxic
Activity (A549 [30]): inactive
Activity [31]: Non-toxic
Activity (C6 [32]): Dose-dependent effect
Activity (A549 [33]): Dose-dependent effect
Activity (HT-29 [34]): inactive
Activity (C6 [35]): Dose-dependent effect
Activity (HT-29 [36]): Active
Activity (A549 [37]): inactive
